# Like-named read-outs stand apart in the source and are kept apart here.
# Assays:
# Format in all cases: in vivo
# [1] = tested on: Surinam grass (Brachiaria decumbens); experiment: Test B pre/postemergence; conditions: Urochloa decumbens; for pest or weed control at 125 g/ha: 125 g ai/ha; for pest or weed control at 500 g/ha: 500 g ai/ha
# Summary of the method: (§1)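 Greenhouse whole-plant test; surfactant-containing non-phytotoxic solvent formulation; pre- and postemergence applications made simultaneously; post plants 2–18 cm, 1- to 4-leaf; visual scoring at 13–15 days on 0–100 scale relative to controls.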
# [2] = tested on: barnyardgrass (Echinochloa crus-galli); experiment: Test B pre/postemergence; conditions: Echinochloa crus-galli; for pest or weed control at 125 g/ha: 125 g ai/ha; for pest or weed control at 500 g/ha: 500 g ai/ha
# Summary of the method: as §1
# [3] = tested on: cocklebur (Xanthium strumarium); experiment: Test B pre/postemergence; conditions: Xanthium strumarium; for pest or weed control at 125 g/ha: 125 g ai/ha; for pest or weed control at 500 g/ha: 500 g ai/ha
# Summary of the method: as §1
# corn (Zea mays) = experiment: Test B pre/postemergence; conditions: Zea mays
# Summary of the method: as §1
# [4] = tested on: crabgrass (Digitaria sanguinalis); experiment: Test B pre/postemergence; conditions: Digitaria sanguinalis; for pest or weed control at 125 g/ha: 125 g ai/ha; for pest or weed control at 500 g/ha: 500 g ai/ha
# Summary of the method: as §1
# [5] = tested on: giant foxtail (Setaria faberii); experiment: Test B pre/postemergence; conditions: Setaria faberi; for pest or weed control at 125 g/ha: 125 g ai/ha; for pest or weed control at 500 g/ha: 500 g ai/ha
# Summary of the method: as §1
# [6] = tested on: lambsquarters (Chenopodium album); experiment: Test B pre/postemergence; conditions: Chenopodium album; for pest or weed control at 125 g/ha: 125 g ai/ha; for pest or weed control at 500 g/ha: 500 g ai/ha
# Summary of the method: as §1
# [7] = tested on: morningglory (Ipomoea coccinea); experiment: Test B pre/postemergence; conditions: Ipomoea; for pest or weed control at 125 g/ha: 125 g ai/ha; for pest or weed control at 500 g/ha: 500 g ai/ha
# Summary of the method: as §1
# [8] = tested on: pigweed (Amaranthus retroflexus); experiment: Test B pre/postemergence; conditions: Amaranthus retroflexus; for pest or weed control at 125 g/ha: 125 g ai/ha; for pest or weed control at 500 g/ha: 500 g ai/ha
# Summary of the method: as §1
# [9] = tested on: velvetleaf (Abutilon theophrasti); experiment: Test B pre/postemergence; conditions: Abutilon theophrasti; for pest or weed control at 125 g/ha: 125 g ai/ha; for pest or weed control at 500 g/ha: 500 g ai/ha
# Summary of the method: as §1
# [10] = tested on: wheat (Triticum aestivum); experiment: Test B pre/postemergence; conditions: Triticum aestivum; for plant injury at 125 g/ha: 125 g ai/ha; for plant injury at 500 g/ha: 500 g ai/ha
# Summary of the method: as §1
# [11] = tested on: blackgrass (Alopecurus myosuroides); experiment: Test B postemergence; conditions: Alopecurus myosuroides, post-emergence
# Summary of the method: as §1
# wild oat (Avena fatua) = experiment: Test B postemergence; conditions: Avena fatua, post-emergence
# Summary of the method: as §1
# [12] = tested on: barnyardgrass (Echinochloa crus-galli); experiment: Test B flooded paddy test; conditions: Echinochloa crus-galli, Flood, 1000 g ai/ha; scale 0 (no effect) to 100 (complete control); read-out: Plant response rating, Barnyardgrass
# Summary of the method: (§2)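 Plants were grown to the 2-leaf stage before treatment, then kept in a greenhouse for 13 to 15 days. Injury was rated visually against untreated controls on a 0 to 100 scale, where 0 is no effect and 100 is complete control.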
# [13] = tested on: duck salad (Heteranthera limosa); experiment: Test B flooded paddy test; conditions: Heteranthera limosa, Flood, 1000 g ai/ha; scale 0 to 100; read-out: Plant response rating, Ducksalad
# Summary of the method: as §2
# rice (Oryza sativa) = experiment: Test B flooded paddy test; conditions: Oryza sativa, Flood, 1000 g ai/ha; scale 0 to 100; read-out: Plant response rating, Rice
# Summary of the method: as §2
# [14] = tested on: umbrella sedge (Cyperus difformis); experiment: Test B flooded paddy test; conditions: Cyperus difformis, Flood, 1000 g ai/ha; scale 0 to 100; read-out: Plant response rating, Sedge, Umbrella
# Summary of the method: as §2
smiles,measurement,setting,value
"COC(=O)c1nc(C2CC2)nc(N)c1Br [Compound 2, methyl 6-amino-5-bromo-2-cyclopropyl-4-pyrimidinecarboxylate]",pest or weed control at 125 g/ha,"[1]; post-emergence, Postemergence, scale 0 to 100 (0 no effect, 100 complete control), read-out: Surinam Grass plant response rating",90%
same,pest or weed control at 500 g/ha,"[1]; post-emergence, Postemergence, scale 0 to 100, read-out: Plant response rating, Surinam Grass",90%
same,pest or weed control at 125 g/ha,"[1]; pre-emergence, Preemergence, scale 0 to 100 (0 no effect, 100 complete control), read-out: Plant response rating, Surinam Grass",40%
same,pest or weed control at 500 g/ha,"[1]; pre-emergence, Preemergence, scale 0 to 100 (0 no effect, 100 complete control), read-out: Surinam Grass plant response rating",90%
same,pest or weed control at 125 g/ha,"[2]; post-emergence, Postemergence, scale 0 to 100 (0 no effect, 100 complete control), read-out: Barnyardgrass plant response rating",90%
same,pest or weed control at 500 g/ha,"[2]; post-emergence, Postemergence, scale 0 to 100, read-out: Plant response rating, Barnyardgrass",90%
same,pest or weed control at 125 g/ha,"[2]; pre-emergence, Preemergence, scale 0 to 100 (0 no effect, 100 complete control), read-out: Plant response rating, Barnyardgrass",70%
same,pest or weed control at 500 g/ha,"[2]; pre-emergence, Preemergence, scale 0 to 100 (0 no effect, 100 complete control), read-out: Barnyardgrass plant response rating",90%
same,pest or weed control at 125 g/ha,"[3]; post-emergence, Postemergence, scale 0 to 100 (0 no effect, 100 complete control), read-out: Cocklebur plant response rating",100%
same,pest or weed control at 500 g/ha,"[3]; post-emergence, Postemergence, scale 0 to 100, read-out: Plant response rating, Cocklebur",100%
same,pest or weed control at 125 g/ha,"[3]; pre-emergence, Preemergence, scale 0 to 100 (0 no effect, 100 complete control), read-out: Plant response rating, Cocklebur",90%
same,pest or weed control at 500 g/ha,"[3]; pre-emergence, Preemergence, scale 0 to 100 (0 no effect, 100 complete control), read-out: Cocklebur plant response rating",100%
same,plant injury at 125 g/ha,"corn (Zea mays); post-emergence, Postemergence, 125 g ai/ha, scale 0 to 100 (0 no effect, 100 complete control), read-out: Corn plant response rating",20%
same,"Corn plant response rating (crop injury, 0 = no effect, 100 = complete kill) at 500 g/ha","corn (Zea mays); post-emergence, Postemergence, 500 g ai/ha, scale 0 to 100",80%
same,"Corn plant response rating (crop injury, 0 = no effect, 100 = complete kill) at 125 g/ha","corn (Zea mays); pre-emergence, Preemergence, 125 g ai/ha, scale 0 to 100 (0 no effect, 100 complete control)",0%
same,plant injury at 500 g/ha,"corn (Zea mays); pre-emergence, Preemergence, 500 g ai/ha, scale 0 to 100 (0 no effect, 100 complete control), read-out: Corn plant response rating",80%
same,pest or weed control at 125 g/ha,"[4]; post-emergence, Postemergence, scale 0 to 100 (0 no effect, 100 complete control), read-out: Crabgrass plant response rating",90%
same,pest or weed control at 500 g/ha,"[4]; post-emergence, Postemergence, scale 0 to 100, read-out: Plant response rating, Crabgrass",90%
same,pest or weed control at 125 g/ha,"[4]; pre-emergence, Preemergence, scale 0 to 100 (0 no effect, 100 complete control), read-out: Plant response rating, Crabgrass",90%
same,pest or weed control at 500 g/ha,"[4]; pre-emergence, Preemergence, scale 0 to 100 (0 no effect, 100 complete control), read-out: Crabgrass plant response rating",90%
same,pest or weed control at 125 g/ha,"[5]; post-emergence, Postemergence, scale 0 to 100 (0 no effect, 100 complete control), read-out: Foxtail, Giant plant response rating",70%
same,pest or weed control at 500 g/ha,"[5]; post-emergence, Postemergence, scale 0 to 100, read-out: Plant response rating, Foxtail, Giant",80%
same,pest or weed control at 125 g/ha,"[5]; pre-emergence, Preemergence, scale 0 to 100 (0 no effect, 100 complete control), read-out: Plant response rating, Foxtail, Giant",30%
same,pest or weed control at 500 g/ha,"[5]; pre-emergence, Preemergence, scale 0 to 100 (0 no effect, 100 complete control), read-out: Foxtail, Giant plant response rating",90%
same,pest or weed control at 125 g/ha,"[6]; post-emergence, Postemergence, scale 0 to 100 (0 no effect, 100 complete control), read-out: Lambsquarters plant response rating",100%
same,pest or weed control at 500 g/ha,"[6]; post-emergence, Postemergence, scale 0 to 100, read-out: Plant response rating, Lambsquarters",100%
same,pest or weed control at 125 g/ha,"[6]; pre-emergence, Preemergence, scale 0 to 100 (0 no effect, 100 complete control), read-out: Plant response rating, Lambsquarters",100%
same,pest or weed control at 500 g/ha,"[6]; pre-emergence, Preemergence, scale 0 to 100 (0 no effect, 100 complete control), read-out: Lambsquarters plant response rating",100%
same,pest or weed control at 125 g/ha,"[7]; post-emergence, Postemergence, scale 0 to 100 (0 no effect, 100 complete control), read-out: Morningglory plant response rating",100%
same,pest or weed control at 500 g/ha,"[7]; post-emergence, Postemergence, scale 0 to 100, read-out: Plant response rating, Morningglory",100%
same,pest or weed control at 125 g/ha,"[7]; pre-emergence, Preemergence, scale 0 to 100 (0 no effect, 100 complete control), read-out: Plant response rating, Morningglory",100%
same,pest or weed control at 500 g/ha,"[7]; pre-emergence, Preemergence, scale 0 to 100 (0 no effect, 100 complete control), read-out: Morningglory plant response rating",100%
same,pest or weed control at 125 g/ha,"[8]; post-emergence, Postemergence, scale 0 to 100 (0 no effect, 100 complete control), read-out: Pigweed plant response rating",100%
same,pest or weed control at 500 g/ha,"[8]; post-emergence, Postemergence, scale 0 to 100, read-out: Plant response rating, Pigweed",100%
same,pest or weed control at 125 g/ha,"[8]; pre-emergence, Preemergence, scale 0 to 100 (0 no effect, 100 complete control), read-out: Plant response rating, Pigweed",90%
same,pest or weed control at 500 g/ha,"[8]; pre-emergence, Preemergence, scale 0 to 100 (0 no effect, 100 complete control), read-out: Pigweed plant response rating",100%
same,pest or weed control at 125 g/ha,"[9]; post-emergence, Postemergence, scale 0 to 100 (0 no effect, 100 complete control), read-out: Velvetleaf plant response rating",60%
same,pest or weed control at 500 g/ha,"[9]; post-emergence, Postemergence, scale 0 to 100, read-out: Plant response rating, Velvetleaf",100%
same,pest or weed control at 125 g/ha,"[9]; pre-emergence, Preemergence, scale 0 to 100 (0 no effect, 100 complete control), read-out: Plant response rating, Velvetleaf",90%
same,pest or weed control at 500 g/ha,"[9]; pre-emergence, Preemergence, scale 0 to 100 (0 no effect, 100 complete control), read-out: Velvetleaf plant response rating",100%
same,plant injury at 125 g/ha,"[10]; post-emergence, Postemergence, scale 0 to 100 (0 no effect, 100 complete control), read-out: Wheat plant response rating",40%
same,plant injury at 500 g/ha,"[10]; post-emergence, Postemergence, scale 0 to 100, read-out: Plant response rating, Wheat",70%
same,plant injury at 125 g/ha,"[10]; pre-emergence, Preemergence, scale 0 to 100 (0 no effect, 100 complete control), read-out: Plant response rating, Wheat",60%
same,plant injury at 500 g/ha,"[10]; pre-emergence, Preemergence, scale 0 to 100 (0 no effect, 100 complete control), read-out: Wheat plant response rating",70%
same,pest or weed control at 125 g/ha,"[11]; 125 g ai/ha, scale 0 to 100 (0 no effect, 100 complete control), read-out: Blackgrass plant response rating",50%
same,pest or weed control at 500 g/ha,"[11]; 500 g ai/ha, scale 0 to 100, read-out: Plant response rating, Blackgrass",80%
same,pest or weed control at 125 g/ha,"wild oat (Avena fatua); 125 g ai/ha, scale 0 to 100 (0 no effect, 100 complete control), read-out: Oat, Wild plant response rating",40%
same,pest or weed control at 500 g/ha,"wild oat (Avena fatua); 500 g ai/ha, scale 0 to 100, read-out: Plant response rating, Oat, Wild",70%
same,pest or weed control at 1000 g/ha,[12],90%
same,pest or weed control at 1000 g/ha,[13],90%
same,plant injury at 1000 g/ha,rice (Oryza sativa),60%
same,pest or weed control at 1000 g/ha,[14],90%
